Test results as given in PMC12624727, “Benzodeazaoxaflavin Sirtuin Inhibitors Inhibit Schistosoma mansoni Sirt2 and Cause Phenotypic Changes and Lethality in Schistosomula and Adult Worm Stages” (ACS Infectious Diseases, 2025).
Like-named read-outs stand apart in the source and are kept apart here.

How the values were obtained:
[1] = system: cytochrome c release in S. mansoni (Puerto Rican strain) worms; test: Western blot of cytosolic cytochrome c in worm extracts; type: cell-based, Schistosoma mansoni; settings: 1 μM, 24 h (legend of Figure 5)
Procedure: To determine if the Sirt2 inhibitors trigger apoptosis through the cytochrome c pathway, we examined cytochrome c release from mitochondria.
5 Effects of selected Sirt2 inhibitors on cytosolic cytochrome c expression. Representative immunoblots of cytosolic protein fractions extracted from S. mansoni adult worm pairs are shown. The worms were treated with the indicated Sirt2 inhibitors (10 μM) for 48 h. DMSO (vehicle), TSA (1 μM, 24 h), a HDAC pan-inhibitor, and salermide (Sal 25 μM, 48 h), a Sirt1/Sirt2 inhibitor, were used as controls. The α-tubulin signal was used for normalization. Quantitation of cytochrome c relative to the vehicle-treated sample is shown.
Ten pairs of adult parasites were treated with selected Sirt inhibitors for either 24 or 48 h at partially lethal and sublethal concentrations. The concentrations of compounds were chosen based on the viability curve. Positive controls in the experiments included TSA, a pan-HDAC inhibitor, and salermide, a hSirt1/2 inhibitor, while DMSO (vehicle) served as negative control. Parasites were lysed in a 0.5% Triton PBS buffer by strokes, and the lysates were then centrifuged to collect the soluble fractions (cytosol). The insoluble fractions were extracted with 0.25 N HCl at +4 °C for 18 h, followed by neutralization with 1/10 volume of 2 N NaOH. Samples were analyzed using 15% SDS-PAGE and Western blotting. […]

SmSirt2 = SmSirt2 (Schistosoma mansoni, UniProt T1VXA1); test: In vitro SmSirt2 inhibition assay, homogeneous fluorescence-based, ZMAL substrate; type: biochemical; settings: for IC50: read-out: IC50 SmSirt2, ZMAL substrate
Chain of SmSirt2 (T1VXA1 entry or part of it): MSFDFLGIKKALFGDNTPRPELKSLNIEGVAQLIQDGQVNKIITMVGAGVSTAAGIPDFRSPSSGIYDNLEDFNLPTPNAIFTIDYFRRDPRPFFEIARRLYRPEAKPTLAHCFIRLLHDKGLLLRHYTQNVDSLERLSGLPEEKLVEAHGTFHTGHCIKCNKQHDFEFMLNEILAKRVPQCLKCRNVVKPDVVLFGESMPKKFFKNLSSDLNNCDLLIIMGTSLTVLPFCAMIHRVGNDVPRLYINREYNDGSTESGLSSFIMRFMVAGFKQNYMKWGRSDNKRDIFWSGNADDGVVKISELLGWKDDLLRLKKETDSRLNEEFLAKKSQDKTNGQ
Procedure: We first improved the synthetic method to obtain most of the BDFs analogues 1–12 (Figure ), and we tested them against recombinant SmSirt2 using a homogeneous, fluorescent-based in vitro assay with (Z)-(Ac)-Lys-7-amino-4-methylcoumarin (ZMAL) as the substrate.
The BDF4 compounds 1–12 were tested for their inhibitory activity against SmSirt2 using a fluorescence-based assay with ZMAL as the substrate. Their activity against hSirt2 has been previously reported. ,
For the screening of compounds 1–12, a homogeneous fluorescence-based assay previously described by some of us was used to determine SmSirt2 activity.

[2] = system: S. mansoni newly transformed schistosomula (NTS), Liberian strain; test: NTS (Liberian strain) in vitro viability assay; type: cell-based, Schistosoma mansoni; settings: for percentage of reduction of NTS viability, 72 h: SD in brackets; for IC50: 72 h, Liberian strain
[3] = system: adult S. mansoni (Liberian strain) worm pairs; test: Adult worm (Liberian strain) in vitro viability assay; type: cell-based, Schistosoma mansoni; settings: for adult worms' percentage of viability reduction, 72 h: SD in brackets; for IC50: Schistosoma mansoni, 72 h, Liberian strain
[4] = system: S. mansoni (Puerto Rican) worm pairs; test: Worm pairing of adult worm pairs (Puerto Rican strain); type: cell-based, Schistosoma mansoni; settings: % of DMSO control
[5] = system: S. mansoni (Puerto Rican) worm pairs; test: Egg laying by adult worm pairs (Puerto Rican strain); type: cell-based, Schistosoma mansoni; settings: % of DMSO control
[6] = system: adult S. mansoni (Puerto Rican strain) worm pairs; settings: for reduction of viability of adult worm pairs: concentration not given, Puerto Rican strain; for viability of adult worm pairs after recovery: both, Puerto Rican, Schistosoma mansoni
hSirt2 = settings: cited from earlier work
[7] = ref footnote b (reference number not given)

SMILES | percentage of reduction of NTS viability, 72 h ([2]; 0.1 μM) | percentage of reduction of NTS viability, 72 h ([2]; 1 μM) | percentage of reduction of NTS viability, 72 h ([2]; 10 μM) | percentage of reduction of NTS viability, 72 h ([2]; 20 μM) | IC50 [2] | IC50 ([2]; Schistosoma mansoni) | adult worms' percentage of viability reduction, 72 h ([3]; 20 μM) | IC50 [3] | % worm pairing ([4]; 1 μM, 24 h, single experiment) | % worm pairing ([4]; 1 μM, 48 h, single experiment) | % worm pairing ([4]; 1 μM, 72 h, single experiment) | % worm pairing ([4]; 10 μM, 24 h, SD in brackets) | % worm pairing ([4]; 10 μM, 48 h, SD in brackets) | % worm pairing ([4]; 10 μM, 72 h, SD in brackets) | % worm pairing ([4]; 20 μM, 24 h, SD in brackets) | % worm pairing ([4]; 20 μM, 48 h, SD in brackets) | % worm pairing ([4]; 20 μM, 72 h, SD in brackets) | % egg laying ([5]; 1 μM, 24 h, single experiment) | IC50 (hSirt2; [7]) | IC50 (SmSirt2) | further results
CC(/C=C/C(=O)NO)=C\[C@@H](C)C(=O)c1ccc(N(C)C)cc1 [TSA] | – | – | – | – | – | – | – | – | – | – | – | – | – | – | – | – | – | – | – | – | cytosolic cytochrome c level [1]: increased levels of cytochrome c
C=CCn1c(=O)nc2oc3ccc4ccccc4c3cc-2c1=O [Compound 4, 10-Allyl-9H-benzo[5,6]chromeno[2,3-d]pyrimidine-9,11(10H)-dione] | 20 (0) % | 100 (0) % | 100 (0) % | 100 (0) % | 0.12 µM | ~0.1 µM | 94.4 (0) % | 2.03 µM | 100% | 100% | 100% | 90 (14) % | 90 (14) % | 90 (14) % | 0 (0) % | 20 (0) % | 60 (0) % | 72% | 10.8 ± 0.3 µM | – | inhibition at 50 µM (SmSirt2): 53.9%; adult worms' percentage of viability reduction, 72 h ([3]; 1 μM): 40.7 (3.7) %; % egg laying ([5]; 1 μM, 48 h, single experiment): 68%; % egg laying ([5]; 1 μM, 72 h, single experiment): 95%; % egg laying ([5]; 10 μM, 24 h, SD in brackets): 61(6) %; % egg laying ([5]; 10 μM, 48 h, SD in brackets): 82 (12) %; % egg laying ([5]; 10 μM, 72 h, SD in brackets): 79 (19) %; % egg laying ([5]; 20 μM, 24 h, SD in brackets): 11 (6) %; % egg laying ([5]; 20 μM, 48 h, SD in brackets): 7 (5) %; reduction of viability of adult worm pairs ([6]; 24 h): approximately 80%; viability of adult worm pairs after recovery ([6]; 72 h): 50%
O=C1NC(=O)N(c2ccccc2)C(=O)/C1=C/c1c(O)ccc2ccccc12 [Compound 10] | – | – | – | – | – | – | – | – | – | – | – | – | – | – | – | – | – | – | – | – | inhibition at 50 µM (SmSirt2): 3.5%; inhibition of SmSirt2 in words (SmSirt2): failed to inhibit; % inhibition at 50 μM hSirt2 (hSirt2; 50 μM, ref footnote a (reference number not given)): 0.7% ^a; inhibition of hSirt2 in words (hSirt2; ref not printed (previously reported)): failed to inhibit
Cn1c(=O)nc2oc3ccc4ccccc4c3cc-2c1=O [Compound 2, 10-Methyl-9H-benzo[5,6]chromeno[2,3-d]pyrimidine-9,11(10H)-dione] | 20.8 (0) % | 43.8 (2.1) % | 61.5 (3.8) % | 85.7 (3.6) % | – | 1.5 µM | 82.1 (3.6) % | > 10 µM | – | – | – | – | – | – | – | – | – | – | 11.2 ± 0.3 µM | 2.3 ± 0.1 µM | adult worms' percentage of viability reduction, 72 h ([3]; 10 μM): 37.3 (3.9) %
CCCCn1c(=O)nc2oc3ccc4ccccc4c3cc-2c1=O [Compound 6, 10-Butyl-9H-benzo[5,6]chromeno[2,3-d]pyrimidine-9,11(10H)-dione] | – | – | – | 34 (1) % | – | – | – | – | – | – | – | – | – | – | – | – | – | – | 16.9 ± 0.8 µM | 7.8 ± 0.8 µM | –
CCCn1c(=O)nc2oc3ccc4ccccc4c3cc-2c1=O [Compound 5, 10-Propyl-9H-benzo[5,6]chromeno[2,3-d]pyrimidine-9,11(10H)-dione] | 24 (0) % | 100 (0) % | 100 (0) % | 100 (0) % | 0.12 µM | ~0.1 µM | 91.7 (2.8) % | 3.35 µM | 100% | 100% | 100% | 90 (14) % | 100 (14) % | 100 (14) % | 0 (0) % | 10 (14) % | 0 (0) % | 104% | 12.5 ± 0.5 µM | 8 ± 0.7 µM | adult worms' percentage of viability reduction, 72 h ([3]; 1 μM): 25.9 (3.7) %; % egg laying ([5]; 1 μM, 48 h, single experiment): 94%; % egg laying ([5]; 1 μM, 72 h, single experiment): 144%; % egg laying ([5]; 10 μM, 24 h, SD in brackets): 55 (15) %; % egg laying ([5]; 10 μM, 48 h, SD in brackets): 73 (33) %; % egg laying ([5]; 10 μM, 72 h, SD in brackets): 75 (7) %; % egg laying ([5]; 20 μM, 24 h, SD in brackets): 12 (16) %; % egg laying ([5]; 20 μM, 48 h, SD in brackets): 11 (14) %; % egg laying ([5]; 20 μM, 72 h, SD in brackets): 13 (10) %; reduction of viability of adult worm pairs ([6]; 24 h): approximately 80%; viability of adult worm pairs after recovery ([6]; 72 h): 40%
CCn1c(=O)nc2oc3ccc4ccccc4c3cc-2c1=O [Compound 3, 10-Ethyl-9H-benzo[5,6]chromeno[2,3-d]pyrimidine-9,11(10H)-dione] | – | 40 (0) % | 100 (0) % | 100 (0) % | – | 1.03 µM | 80.3 (5.4) % | > 10 µM | – | – | – | – | – | – | – | – | – | – | 30 ± 1.2 µM | 12.6 ± 2.2 µM | adult worms' percentage of viability reduction, 72 h ([3]; 10 μM): 49 (0) %
O=c1nc2oc3ccc4ccccc4c3cc-2c(=O)[nH]1 [Compound 1, 7-Oxa-8,10-Diazabenzo[a]anthracene-9,11-dione] | 16.7 (0) % | 90 (1.7) % | 100 (0) % | 100 (0) % | 0.25 µM | ~0.2 µM | 85.7 (7.2) % | > 10 µM | 100% | 100% | 100% | 100 (0) % | 100 (0) % | 100 (0) % | 100 (0) % | 100 (0) % | 100 (0) % | 79% | – | 3.8 ± 0.3 µM | selectivity toward SmSIRT2 over the human isoform (SmSirt2; SmSirt2 vs hSirt2): selectively active against the parasite enzyme; adult worms' percentage of viability reduction, 72 h ([3]; 10 μM): 27.5 (2) %; % egg laying ([5]; 1 μM, 48 h, single experiment): 90%; % egg laying ([5]; 1 μM, 72 h, single experiment): 116%; % egg laying ([5]; 10 μM, 24 h, SD in brackets): 93 (27) %; % egg laying ([5]; 10 μM, 48 h, SD in brackets): 97 (14) %; % egg laying ([5]; 10 μM, 72 h, SD in brackets): 122 (14) %; % egg laying ([5]; 20 μM, 24 h, SD in brackets): 56 (22) %; % egg laying ([5]; 20 μM, 48 h, SD in brackets): 75 (19) %; % egg laying ([5]; 20 μM, 72 h, SD in brackets): 109 (47) %; reduction of viability of adult worm pairs ([6]; 72 h): 20%; IC50 (hSirt2; ref footnote a (reference number not given)): > 50 µM
